The target in the assay is T1, full length PDK1 (Homo sapiens, UniProt O15530).
T1 construct: Full-length human 3-Phosphoinositide Dependent protein Kinase-1; made in house; host or cells: baculovirus / Sf9 insect cells
T1 sequence (O15530 1-556): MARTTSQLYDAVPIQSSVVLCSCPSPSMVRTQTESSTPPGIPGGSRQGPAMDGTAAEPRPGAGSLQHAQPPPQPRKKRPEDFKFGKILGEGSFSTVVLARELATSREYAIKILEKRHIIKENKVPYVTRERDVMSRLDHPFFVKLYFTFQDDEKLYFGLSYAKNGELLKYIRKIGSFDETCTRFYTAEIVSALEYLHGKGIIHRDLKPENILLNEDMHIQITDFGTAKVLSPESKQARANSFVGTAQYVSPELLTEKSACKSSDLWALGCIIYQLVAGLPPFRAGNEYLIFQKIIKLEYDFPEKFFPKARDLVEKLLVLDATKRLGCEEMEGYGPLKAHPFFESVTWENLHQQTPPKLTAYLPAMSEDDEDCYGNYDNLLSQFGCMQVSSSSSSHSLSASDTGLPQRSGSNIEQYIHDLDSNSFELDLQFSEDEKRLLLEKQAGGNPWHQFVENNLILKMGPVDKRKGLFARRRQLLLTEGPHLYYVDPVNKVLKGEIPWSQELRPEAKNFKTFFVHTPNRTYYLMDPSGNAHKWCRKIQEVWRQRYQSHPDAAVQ
Put plainly: PDK1 enzyme assays (substrate phosphorylation: LEADseeker scintillation proximity, TR-FRET, PDKtide). Type of assay: biochemical. The settings on record: in at least one experimental run, read-out: IC50 against full length PDK1. How it is done: Substrate phosphorylation assays are carried out as follows:
Biotinylated-hAKT1: Human AKT1 (containing amino acid residues 136-480, as annotated by National Center for Biotechnology Information (NCBI) accession number AAL55732.1, with a MetLysLysHis6 N-terminal addition) is purified to >90% from lysate of baculovirus expression by Nickel Chelating ProBond resin (InVitrogen), Q-Sepharose Fast Flow, and Superdex 200 size exclusion chromatography. Biotinylation is achieved using EZ-Link Sulfo-NHS-LC Biotin (Pierce). Samples, in 25 mM HEPES, pH 7.5, 200 mM NaCl, 2 mM DTT, and 30% glycerol are stored at −80C until use.
Full-length human 3-Phosphoinositide Dependent protein Kinase-1 (hPDK1; National Center for Biotechnology Information (NCBI) accession number AAH39158.1 with a MetGlyHis6 N-terminal addition) is purified from baculovirus expression in Sf9 cells. Purity of approximately 80% is achieved by the use of chelation chromatography (Ni-NTA Superflow) and desalting columns. Samples, in 25 mM HEPES, 150 mM NaCl, 2.5 mM DTT, 0.05% Triton, 30% glycerol, pH 8.0, are stored at −80° C. until use.
The 39 amino acid biotinylated-PDKtide peptide Seq. ID No. 1: (Biotin-Ahx-[…]) was custom synthesized by 21st Century Biochemicals. […] The concentration was confirmed by quantitative amino acid analysis.
Scintillation Proximity (LEADseeker) Kinase Assay of Purified hPDK1:
Assays are performed in 384-well microtiter plates (Greiner, Catalog No. 784075). The reaction volume (10 μl) contains, in final concentrations, 25 mM MOPS (pH 7.5), 10 mM MgCl2, 50 mM KCl, 0.1 mg/ml BSA, 1 μM ATP, 3 uCi/ml ^33PγATP, 5 mM DTT, 1 mM CHAPS or 0.05% Tween20, 0.35 μM AKT1 biotinylated protein, and 10 nM hPDK1.
Compounds, titrated in DMSO, are evaluated at eleven concentrations ranging from 50 μM to 2 μM. […] Reactions are stopped after 3 hours at room temperature by the addition of 50 mM EDTA, 5 mg/ml LEADseeker beads (GE Healthcare) in PBS (10 ul). Beads are allowed to settle overnight, and samples are imaged on Viewlux (PerkinElmer).
The data for compound concentration responses were plotted as % Inhibition, calculated with the data reduction formula 100*(1−[(U1−C2)/(C1−C2)]), versus concentration of compound, where
Data were fitted to the curve described by:
TR-FRET Kinase Assay of Purified hPDK1:
Assays are performed in 384-well microtiter plates (Greiner, Catalog No. 784076).
As previously described for the Scintillation Proximity protocol, hPDK1 is pre-incubated (30 minutes at room temperature) with compounds before initiating phosphorylation of AKT1 by addition of substrate to the hPDK1 and compound mix. Reactions are stopped after 4-6 hours at room temperature by the addition to final concentrations of 0.02 M EDTA, 0.0875 μM Streptavidin APC (PerkinElmer), 0.03 μM AKT1 (phospho T308) antibody (Abcam Inc.), 0.00375 μM Lance Eu-labeled anti rabbit IgG Antibody (PerkinElmer). Antibody binding reaches equilibrium in 30 minutes before signal is read on an EnVision™ 2103 Multilabel Reader (PerkinElmer). APC Signals are normalized to Europium signal. Data processing is the same as described for the Scintillation Proximity assay with the exception of the generation of the “C2” control by addition of buffer without hPDK1 to control wells at t=0 instead of EDTA.
Scintillation Proximity (LEADseeker) Kinase Assay of Purified hPDK1 using Biotinylated-PDKtide Peptide:
Assays are performed in 384-well microtiter plates (Greiner, Catalog No. 784075). The reaction volume (10 μl) contains, in final concentrations, 25 mM MOPS (pH 7.5), 10 mM MgCl2, 50 mM KCl, 0.1 mg/ml BSA, 1 μM ATP, 3 uCi/ml ^33PγATP, 5 mM DTT, 0.5 mM CHAPS, 1 μM biotinylated-PDKtide peptide, and 0.5 nM hPDK1.
Compounds, titrated in DMSO, are evaluated at eleven concentrations ranging from 25 μM to 0.4 pM. […] Reactions are stopped after 4 hours at room temperature by the addition of 50 mM EDTA, 5 mg/ml LEADseeker beads (GE Healthcare) in PBS (10 ul).

Take `C[C@@H]1CC[C@H](C(=O)NC2CCCC2)CN1c1cc(-c2ccc3c(N)n[nH]c3c2)nc(N)n1` [Example 142, (3S,6R)-1-[2-amino-6-(3-amino-1H-indazol-6-yl)-4-pyrimidinyl]-N-cyclopentyl-6-methyl-3-piperidinecarboxamide]: the IC50 is less than 0.02 µM.

With `CCCNc1cc(-c2ccc3c(N)n[nH]c3c2)nc(N)n1` [Example 74, 6-(3-Amino-1H-indazol-6-yl)-N^4-propyl-2,4-pyrimidinediamine], the IC50 was less than 0.1 µM. In the case of `C[C@@H]1CC[C@H](C(=O)NCCc2ccccc2)CN1c1cc(-c2ccc3c(N)n[nH]c3c2)nc(N)n1` [Example 149, (3S,6R)-1-[2-Amino-6-(3-amino-1H-indazol-6-yl)-4-pyrimidinyl]-6-methyl-N-(2-phenylethyl)-3-piperidinecarboxamide] it was less than 0.02 µM; in that of `CC[C@@H]1CCCN1c1cc(-c2ccc3c(N)n[nH]c3c2)nc(N)n1` [Example 46, 6-{2-Amino-6-[(2R)-2-ethyl-1-pyrrolidinyl]-4-pyrimidinyl}-1H-indazol-3-amine], less than 0.15 µM; in that of `Nc1nc(NC2CC2)cc(-c2ccc3c(N)n[nH]c3c2)n1` [Example 51, 6-(3-Amino-1H-indazol-6-yl)-N^4-cyclopropyl-2,4-pyrimidinediamine], less than 0.1 µM. For the compound `COc1cc(-c2cc(N3CCOC[C@H]3C)nc(N)n2)cc2[nH]nc(N)c12` [Example 200, 6-{2-Amino-6-[(3R)-3-methyl-4-morpholinyl]-4-pyrimidinyl}-4-(methyloxy)-1H-indazol-3-amine], the IC50 is less than 0.15 µM. Take `Nc1nc(NCC2CCCCC2)cc(-c2ccc3c(N)n[nH]c3c2)n1` [Example 38, 6-(3-Amino-1H-indazol-6-yl)-N^4-(cyclohexylmethyl)-2,4-pyrimidinediamine]: the IC50 is less than 0.1 µM. As to `CCOc1cc(-c2cc(N3CCOC[C@H]3C(C)C)nc(N)n2)cc2[nH]nc(N)c12` [Example 199, 6-{2-Amino-6-[(3R)-3-(1-methylethyl)-4-morpholinyl]-4-pyrimidinyl}-4-(ethyloxy)-1H-indazol-3-amine], the IC50 was less than 0.15 µM.

As to `Nc1nc(-c2ccc3c(N)n[nH]c3c2)cc(N2CCC[C@@H](NC(=O)OC3CCC3)C2)n1` [Example 209, Cyclobutyl{(3R)-1-[2-amino-6-(3-amino-1H-indazol-6-yl)-4-pyrimidinyl]-3-piperidinyl}carbamate], the IC50 is less than 0.05 µM. As to `CNc1nc(-c2cc(OC)c3c(N)n[nH]c3c2)cc(N2CCC[C@@H](NC(=O)OC(C)(C)C)C2)n1` [Example 203, 1,1-Dimethylethyl{(3R)-1-[6-[3-amino-4-(methyloxy)-1H-indazol-6-yl]-2-(methylamino)-4-pyrimidinyl]-3-piperidinyl}carbamate], the IC50 was less than 0.05 µM. As for `CC1CCC(NC(=O)OC2CCCC2)CN1c1cc(-c2ccc3c(N)n[nH]c3c2)nc(N)n1` (stereo not drawn) [Example 120, Cis-cyclopentyl{1-[2-amino-6-(3-amino-1H-indazol-6-yl)-4-pyrimidinyl]-6-methyl-3-piperidinyl}carbamate], the IC50 is less than 0.05 µM. With `CCOc1cc(-c2cc(N3CCOC[C@H]3CC)nc(NC)n2)cc2[nH]nc(N)c12` [Example 184, 6-[6-[(3R)-3-Ethyl-4-morpholinyl]-2-(methylamino)-4-pyrimidinyl]-4-(ethyloxy)-1H-indazol-3-amine], the IC50 was less than 0.15 µM. On to `CC[C@@H]1COCCN1c1cc(-c2cc(NC3CCCC3)c3c(N)n[nH]c3c2)nc(NC)n1` [Example 181, N^4-Cyclopentyl-6-[6-[(3R)-3-ethyl-4-morpholinyl]-2-(methylamino)-4-pyrimidinyl]-1H-indazole-3,4-diamine], for which the IC50 is less than 0.15 µM. In the case of `Nc1nc(NCc2ccccc2)cc(-c2ccc3c(N)n[nH]c3c2)n1` [Example 2, 6-(3-Amino-1H-indazol-6-yl)-N^4-(phenylmethyl)-2,4-pyrimidinediamine], the IC50 is less than 0.1 µM. In the case of `CC(C)OC(=O)N[C@@H]1CCCN(c2cc(-c3ccc4c(N)n[nH]c4c3)nc(N)n2)C1` [Example 217, 1-Methylethyl{(3R)-1-[2-amino-6-(3-amino-1H-indazol-6-yl)-4-pyrimidinyl]-3-piperidinyl}carbamate] it was less than 0.05 µM. As to `CNc1nc(-c2cc(F)c3c(N)n[nH]c3c2)cc(N2C[C@@H](C(=O)NC3CCCCC3)CC[C@H]2C)n1` [Example 85, (3S,6R)-1-[6-(3-Amino-4-fluoro-1H-indazol-6-yl)-2-(methylamino)-4-pyrimidinyl]-N-cyclohexyl-6-methyl-3-piperidinecarboxamide], the IC50 is less than 0.02 µM. Consider `CNc1nc(-c2ccc3c(N)n[nH]c3c2)cc(N2C[C@@H](C(=O)NCc3ccccc3)CC[C@H]2C)n1` [Example 80, (3S,6R)-1-[6-(3-Amino-1H-indazol-6-yl)-2-(methylamino)-4-pyrimidinyl]-6-methyl-N-(phenylmethyl)-3-piperidinecarboxamide], for which the concentration for half-maximal inhibition (IC50) was less than 0.02 µM. In the case of `Nc1nc(-c2ccc3c(N)n[nH]c3c2)cc(N2CCC[C@@H](N3CCOC3=O)C2)n1` [Example 211, 3-{(3R)-1-[2-Amino-6-(3-amino-1H-indazol-6-yl)-4-pyrimidinyl]-3-piperidinyl}-1,3-oxazolidin-2-one] it was less than 0.05 µM.

Usually IC50 stands for the midpoint of a concentration-inhibition curve.
